Data as given in a melting point compilation (Tetko et al.; mined from patent text by program, amines drawn as free bases though some values may be those of a salt).

Row | melting point [°C] | Structure (SMILES)
1 | 125 to 129 | COc1cc(N)ccc1-c1cnc(C)s1
2 | 176 to 178 | OCC(=C(c1ccc(F)cc1)c1ccc(F)cc1)c1nnn(C(c2ccccc2)(c2ccccc2)c2ccccc2)n1
3 | 83 to 85 | COC(=O)c1ccc(S(=O)(=O)N2CC[C@@H](Sc3cc(C(C)(C)C)c(O)c(C(C)(C)C)c3)C2)n1C
4 | 68 to 70 | COCCOc1cccc2c(Nc3ccccc3C)c(C(=O)C(C)C)cnc12
5 | 215 to 217 | CC1(C)CC2(CC(C)(C)c3ccc(O)cc32)c2cc(O)ccc21
6 | 192 to 194 | COc1ccc(C(NCC(C)c2ccccc2)c2cccc(Nc3c(N)c(=O)c3=O)c2)cc1 (stereo not drawn)
7 | 133 to 136 | O=C1NC(=O)C(Cc2ccc(OCCN3CCc4ccccc43)cc2)S1 (stereo not drawn)
8 | 114 | Clc1ccc2[nH]c3c(c2c1)CCN1CCCC=C31
9 | 129 to 130 | c1ccc(COc2cccc3cc(C4=NCCS4)[nH]c23)cc1
10 | 198 to 200 | N#Cc1cc(C(=O)N=C(N)N)cc(-n2cccc2)c1
11 | 111 to 112 | CC(SC1COC(C=CC=Cc2ccc(C#N)cc2F)OC1)C(O)(Cn1cncn1)c1ccc(F)cc1F (stereo not drawn)
12 | 215 to 216 | COc1ccc(C2CNC(=O)NC2)cc1OC(F)F
13 | 116 to 117 | CS(=O)(=O)CCCCC(c1cc(Cl)ccc1F)S(=O)(=O)c1ccc(Cl)cc1 (stereo not drawn)
14 | 38 to 39 | C#Cc1ccc([Si](OC)(OC)OC)cc1
15 | 153 to 155 | c1csc(Cn2ccnc2-c2ncc[nH]2)c1
16 | 128 to 130 | Cc1ccc(Oc2cccc(C#CC(C)N(O)C(N)=O)c2)cc1F (stereo not drawn)
17 | 86 | O=C(O)Cc1ccc(SCCNC(=O)C2Cc3ccccc3N2S(=O)(=O)c2ccc(-c3ccccc3C(F)(F)F)cc2)c(Cl)c1 (stereo not drawn)
18 | > 250 | Nc1nc2ccccc2c2c1ncn2CC1(O)CCCCC1
19 | 124 to 125 | c1ccc(-c2noc(COc3ccc(CCCn4ccnc4)cc3)n2)cc1
20 | 289 to 294 | Oc1nc(-c2ccc3c(c2)CCO3)nc2ccccc12
21 | 115 to 118 | O=Cc1ccc(N2CCC(O)CC2)cc1
22 | 242 to 243 | NS(=O)(=O)c1ccc(NC(=O)Nc2ccc(F)cc2)cc1
23 | 179 to 180 | CCC(=O)c1ccc2c(c1)C(C(=O)Nc1cccc(C(=O)Nc3ccccc3)c1)C(=O)N2CC (stereo not drawn)
24 | 210 | CCCCc1nnc2ccccc2c1Cc1ccc(-c2ccccc2C(=O)O)cc1
25 | 114 to 116 | CN(Cc1ccc(S(C)(=O)=O)s1)C(=O)C12CC3CC(CC(C3)C1)C2

Row | melting point [°C] | Structure (SMILES)
26 | 130 to 131 | COCCOCCOCC(=O)Nc1cc(N)cc(C(=O)O)c1
27 | 149 to 150 | CC(=NOCCOc1ccc(C(=O)O)c(O)c1)c1ccccc1
28 | 230 | O=c1[nH]cnc2c(CN[C@H](CO)[C@H](O)CO)c[nH]c12
29 | 107 to 110 | COc1ccc(-c2cnc(N)c(Sc3ccc(C)cc3)n2)cc1
30 | 145 to 147 | O=c1c2cc(F)c(F)cc2n(CCF)c(=O)n1OCc1ccccc1
31 | > 300 | N#Cc1cc2[nH]c(=O)c3n[nH]c(=O)n3c2cc1-n1ccnc1
32 | 197 to 198 | CCNC(=O)c1cccc2c1c(=O)n(Cc1cccnc1)n2C(=O)OCC
33 | 120 to 121 | COc1cc(Cc2cnc(NCCCCc3ncc(Br)cc3C)[nH]c2=O)ccn1
34 | 194 to 204 | CC(=O)N(C)C(CCCC(=O)O)C(=O)N(C)c1c(I)cc(I)c(C(=O)O)c1I (stereo not drawn)
35 | 104 to 106 | CCOC(=O)CC(NC(=O)c1ccc(OC)cc1)C(=O)c1ccco1 (stereo not drawn)
36 | 153 to 156 | CC(=O)NCCc1c[nH]c2ccc(OC(=O)Oc3ccc([N+](=O)[O-])cc3)cc12
37 | 82 to 84 | CCCCCCC(=O)c1ccc(O)c(Cl)c1Cl
38 | 88 to 90 | COc1ccc2c(c1)nc(C)n2-c1ccccc1
39 | 120 to 124 | COC(=O)[C@@H](C)N[C@@H](CC(C)(C)C)C(=O)O
40 | 181 | Clc1ccc(C2(Cn3cncn3)OCCO2)c(Cl)c1Cl
41 | 213 to 214 | Cn1cnc(=O)[nH]c1=O
42 | 158 to 160 | CC(=O)OC1C(OC(=O)c2ccc(N)cc2)C=C(C)C(=O)CC1(C)C (stereo not drawn)
43 | 197 to 198 | Cc1csc(NC(=O)C2(CN3CCN(c4nc(C)cs4)C3=O)C=CC=CC2)n1 (stereo not drawn)
44 | 160 to 162 | COc1ccc(SC(=C2NCCCS2)[N+](=O)[O-])cc1
45 | 42 to 43 | CC(C)(C)C(=O)CNC(=O)c1nn(-c2ccc(F)cc2F)c2c1C1CCC2C1 (stereo not drawn)
46 | 167 to 169 | COC(CNC(=O)c1ccc(C(=O)N2CCN(c3ncccc3NC(C)C)CC2)nc1)OC
47 | 159 to 160 | O=c1[nH]c(=O)n(C2CC(OCc3cccc4ccccc34)C(CO)O2)cc1F (stereo not drawn)
48 | 265 | COc1ccc(N2C(=O)C(N3C(=O)c4ccccc4C3=O)C2c2ccc(C(=O)O)cc2)cc1 (stereo not drawn)
49 | 150 to 154 | CCn1c(=O)c(C(=O)NC)c(O)c2ccc(C)nc21
50 | 98 to 99 | Fc1ccc(-c2nc(CCCSc3ccccc3)[nH]c2-c2ccncc2)cc1

Row | melting point [°C] | Structure (SMILES)
51 | 47 to 49 | Cc1cc(C)cc(OCC(O)CO)c1 (stereo not drawn)
52 | 203 to 204 | CC(C)c1ccc(NC(=O)N(C)C2N(C)C(c3ccc(F)cc3)=NC2(C(F)(F)F)C(F)(F)F)cc1 (stereo not drawn)
53 | 266 to 272 | O=S1(=O)NC2CCCN2c2ccc(Oc3cccc(-c4nnn[nH]4)c3)cc21 (stereo not drawn)
54 | 66 | Cc1ccc2c(NCc3ccc(NC(=O)C4CCN(Cc5ccccc5)CC4)cc3)nc(N3CCCCCC3)nc2c1
55 | 108 to 110 | Nc1ccc(C(=O)N(CCN2CCC(C(=O)c3ccc(F)cc3)CC2)c2cccc(N)c2)cc1
56 | 190 to 191 | O=C(NC1CCCCC1)NS(=O)(=O)c1ccc2c(c1)CCN(C(=O)N1CCOCC1)CC2
57 | 93 | CCc1cc(C(O)(CC)CC)ccc1-c1cc(OCc2ccc(CO)c(CO)c2)ccc1CC
58 | 216 to 218 | NS(=O)(=O)c1cc(C(=O)O)cc(NCCc2ccncc2)c1-c1ccccc1
59 | 98 to 100 | COC(=O)c1cc(Oc2cccnc2)c(C(F)(F)F)cc1[N+](=O)[O-]
60 | 60 to 61 | O=C1Cc2cc(Cl)ccc2Oc2ccccc21
61 | 154 to 156 | CN1CCN(C(=O)c2ccc(N)cc2C(F)(F)F)CC1
62 | 85 to 88 | COC1(c2cc(F)cc(S(=O)(=O)c3ccc4c(ccc(=O)n4C)c3)c2)CCOC(C)C1 (stereo not drawn)
63 | 157 to 158 | Cc1ccc2c(c1)N(C1CC1)CNS2(=O)=O
64 | 139 to 146 | Cn1nnnc1SCC1c2cc(OC(=O)c3cccs3)c(OC(=O)c3cccs3)cc2CCN1C(=O)OCC(Cl)(Cl)Cl (stereo not drawn)
65 | 169 to 170 | CN(C)Cc1ccc(OCC(=O)N2CCN(c3ccc(N4C[C@H](CNC(=S)C5CC5)OC4=O)cc3F)CC2)cc1
66 | 112 to 113 | CCOC(=O)c1c(CC)nn(C)c1NC(=O)Cc1ccc(OC)cc1
67 | 122 to 124 | O=S(=O)(NCC1CCN(C[C@H]2COc3ccc(Cl)cc3O2)CC1)c1c(F)cccc1F
68 | 218 to 220 | C[C@]1(CN2CCN(c3ccc(Cl)cc3)CC2)Cn2cc([N+](=O)[O-])nc2O1
69 | 130 | CCOC(=O)C1CN(C(=O)c2ccccc2)CC1c1ccc(NC(=O)Cc2ccc(NC(=O)Nc3ccccc3C)c(OC)c2)cc1 (stereo not drawn)
70 | 191 to 192 | Cc1ncc(C=O)c(N)n1
71 | 116 to 118 | CCCCNc1nc(N)nc2c1ncn2C1C=CC(CO)C1 (stereo not drawn)
72 | 203 to 210 | O=C(Nc1nc(-c2ccco2)c(C(=O)C2CCSCC2)s1)c1ccncc1
73 | 143 to 147 | CCN1C(=O)C(C)(C)C(=O)N(C)c2cc(OCCCN3C(=O)C4(OCCO4)c4ccccc43)ccc21
74 | 178 to 179 | OC1CCc2cccc(Nc3cc(-c4ccc(C(F)(F)F)cc4)ncn3)c2C1 (stereo not drawn)
75 | 206 to 208 | Cc1c(Br)c(=O)oc2nn(Cc3ccccc3Cl)c(C)c12

Row | melting point [°C] | Structure (SMILES)
76 | 184 to 186 | Nc1ccnc2c(F)cccc12
77 | 160 to 162 | Cc1cccc(CCC(=O)Cn2ccnc2)c1
78 | 195 | CC#CC(=O)N[C@H]1CC[C@H](CCN2CCC(c3cccc4c3CCO4)CC2)CC1
79 | 69 to 72 | C[C@H](C(=O)O)C(C)(C)c1ccccc1
80 | 96 to 97 | COC(=O)c1ccccc1OCCCOc1cc2c(cc1O)CCO2
81 | 64 to 66 | OCC1=CC=C(CO)SS1
82 | 88 to 90 | CN(C)CCCNC(=O)c1cccc(-c2nnc(CSCCOc3ccccc3)o2)c1
83 | 94 to 95 | CCC(O)(CC)c1ccc(-c2cc(-c3c[nH]nc3-c3cccc(C)n3)ccc2F)nc1
84 | 212 to 218 | CC(C)([C@H](NC(=O)c1ccccc1)C(=O)N[C@@H](Cc1ccccc1)[C@H](O)CN1C[C@H]2CCCC[C@H]2C[C@H]1C(=O)NCc1ccccc1)S(C)(=O)=O
85 | 161 | OC(C(=Cn1cncn1)c1ccc(Cl)cc1)c1ccccc1C(F)(F)F (stereo not drawn)
86 | 126 to 127 | COc1cc(CO)ccc1OCc1nc(-c2ccccc2)cn1C
87 | 179 | COc1c(NC(=O)c2c(F)cc(F)cc2F)cccc1C(=O)Nc1c(Cl)cc(C(F)(C(F)(F)F)C(F)(F)C(F)(F)F)cc1Br (stereo not drawn)
88 | 117 to 118 | COc1cn(-c2ccc(OC(F)(F)F)cc2F)nc(-c2ccnn2-c2ccccc2)c1=O
89 | 82 to 84 | COc1cc(-c2ccc(C(F)(F)F)cc2)nc(SC)n1
90 | 113 to 115 | COc1ccc(CNc2c(C)c(C)c3c(c2C)C(c2ccccc2)C(C)(C)O3)cc1 (stereo not drawn)
91 | 149 to 150 | COc1ccc2c(-c3cccc(F)c3)noc2c1Cl
92 | 142 to 145 | COc1cc(OC)c(-c2cccs2)cc1/C=C/C(=O)c1ccc(S(=O)(=O)Nc2cc[nH]n2)cc1
93 | 102 to 104 | COCCN(CCC12CC3CC(CC(C3)C1)C2)C(=O)NCCCc1ccncc1
94 | 197 | CC(C)(O)C1CC(c2ccc(-c3ccc(N4C[C@H](Cn5ccnn5)OC4=O)cc3F)cn2)=NO1 (stereo partly drawn)
95 | 199 to 200 | Cc1ccccc1-c1c(NC(=O)Nc2ccc(F)cc2F)c(=O)oc2ccc(C(C)C)cc12
96 | 198 to 200 | CC1=C(c2ccncc2)SC(c2ccc(O)cc2)C(=O)N1 (stereo not drawn)
97 | 95 to 97 | O=c1c2cn(S(=O)(=O)CCCCl)nc2n(CC2CC2)c(=O)n1CC1CC1

Row | Structure (SMILES) | melting point [°C]
98 | CC(=O)CCC(=O)N1CC1C#N (stereo not drawn) | 93 to 94
